Consider four molecules from patent US20140142177A1, “TOPICAL ORGANIC ACID SALT COMPOSITIONS SUITABLE FOR TREATING INFECTIONS” (priority 2009, published 2014).

The test system of this assay is T. rubrum. In words: Demonstration of synergistic activity, CLSI Reference Method 38-A2, growth at combined dilutions. The class given is cell-based, Trichophyton rubrum. More on the design: key to growth of T. rubrum: N=negative growth; P=positive growth. The settings on record: for concentration at which negative growth was shown, individually: T. rubrum, tested individually. The protocol: This method is the gold standard used in measuring the antifungal susceptibility of filamentous fungi that cause invasive infections. Fungal colonies are grown on potato glucose agar (PGA). One colony is picked and grown in Sabouraud glucose broth (SGB) at 24° C. for 3 days in the presence of test compound. Microdilution trays are incubated at 24° C., and are read after 5 days of culture. Turbidity in the microdilution wells is scored with the aid of a reading mirror and compared with that of the growth control. A numerical score from 0 to 4 is given to each well using the following scale: 0=optically clear or absence of growth, 1=slight growth (25% of growth control), 2=prominent reduction in growth (50% of growth control), 3=slight reduction in growth (75% of growth control), 4=no reduction in growth.

With `CCC(=O)[O-].CCC(=O)[O-].[Zn+2]` [Formulation F9, zinc propionate], the “concentration at which negative growth was shown, individually” value (“concentration” for short) is 0.03 times the initial concentration. Further, the “growth of T. rubrum” value (F9 0.004X alone) was “P 0.004X”. Also, the “growth of T. rubrum” value (F9 0.007X alone) is recorded as “P 0.007X”. For the same molecule, under “F9 0.015X alone”, the “growth of T. rubrum” value was “P 0.015X”. Moreover, the “growth of T. rubrum” value (F9 0.03X alone) was “N 0.03X”. For the same molecule, the “growth of T. rubrum” value (F9 0.06X alone) is recorded as “N 0.06X”. Besides, the “growth of T. rubrum” value (F9 0.125X alone) is “N 0.125X”. Under “F9 0.25X alone”, the “growth of T. rubrum” value was “N 0.25X”.
Take `O=C([O-])c1ccccc1.[Na+]` [Formulation F11, sodium benzoate]: the “concentration” value is on record as 0.03 times the initial concentration. The “growth of T. rubrum” value (F11 0.004X alone) is “P 0.004X”. For the same molecule, the “growth of T. rubrum” value (F11 0.007X alone) was “P 0.007X”. In addition, the “growth of T. rubrum” value (F11 0.015X alone) was “P 0.015X”. Also, the “growth of T. rubrum” value (F11 0.03X alone) is given as “N 0.03X”. The “growth of T. rubrum” value (F11 0.06X alone) was “N 0.06X”. The “growth of T. rubrum” value (F11 0.125X alone) is recorded as “N 0.125X”. Also, the “growth of T. rubrum” value (F11 0.25X alone) is “N 0.25X”.
For `O=C[O-].[Na+]` [Formulation F12, sodium formate], the “concentration” value is on record as 0.06 times the initial concentration. Under “F12 0.004X alone”, the “growth of T. rubrum” value is “P 0.004X”. Further, the “growth of T. rubrum” value (F12 0.007X alone) is “P 0.007X”. The “growth of T. rubrum” value (F12 0.015X alone) was “P 0.015X”. Also, the “growth of T. rubrum” value (F12 0.03X alone) is on record as “P 0.03X”. Further, the “growth of T. rubrum” value (F12 0.06X alone) is given as “N 0.06X”. Also, the “growth of T. rubrum” value (F12 0.125X alone) is given as “N 0.125X”. Further, the “growth of T. rubrum” value (F12 0.25X alone) was “N 0.25X”.
As to `CC(=O)[O-].[Na+]` [Formulation F14, sodium acetate], the “concentration” value was 0.125 times the initial concentration. In addition, the “growth of T. rubrum” value (F14 0.004X alone) is reported as “P 0.004X”. Also, the “growth of T. rubrum” value (F14 0.007X alone) is “P 0.007X”. Moreover, for the setting “F14 0.015X alone”, the “growth of T. rubrum” value is “P 0.015X”. Also, the “growth of T. rubrum” value (F14 0.03X alone) is “P 0.03X”. Besides, the “growth of T. rubrum” value (F14 0.06X alone) was “P 0.06X”. Under “F14 0.125X alone”, the “growth of T. rubrum” value is given as “N 0.125X”. The “growth of T. rubrum” value (F14 0.25X alone) is “N 0.25X”.
